In experiment [1] the target is T1, LPL (native bovine milk protein) inactivated by ANGPTL4 (Bos taurus, UniProt P11151).
T1 construct: from tissue; host or cells: bovine milk (LPL); E. coli (GST-ANGPTL4)
T1 sequence (P11151 29-478): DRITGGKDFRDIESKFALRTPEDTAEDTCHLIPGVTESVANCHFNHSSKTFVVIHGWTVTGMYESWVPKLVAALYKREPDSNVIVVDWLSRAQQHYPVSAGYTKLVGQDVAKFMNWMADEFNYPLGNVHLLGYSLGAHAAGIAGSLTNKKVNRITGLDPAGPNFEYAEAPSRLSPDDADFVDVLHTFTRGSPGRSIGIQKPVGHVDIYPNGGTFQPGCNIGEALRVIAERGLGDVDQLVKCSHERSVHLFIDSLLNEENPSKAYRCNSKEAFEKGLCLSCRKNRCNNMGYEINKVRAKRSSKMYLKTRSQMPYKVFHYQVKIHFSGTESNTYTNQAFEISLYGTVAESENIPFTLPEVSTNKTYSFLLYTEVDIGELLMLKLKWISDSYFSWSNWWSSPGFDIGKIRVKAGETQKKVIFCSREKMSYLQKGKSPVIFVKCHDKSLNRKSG
Briefly: LPL ANGPTL4 protection assay (LPL fluorescence assay, resorufin butyrate substrate). It is filed as biochemical. Conditions: LPL activation activity, LPL 2.5 nM, ANGPTL4 20 nM. The procedure: LPL is inactivated by angiopoietin-like 4 (ANGPTL4). Compounds of the present disclosure were for activity using the following protection assay. Briefly, the assay was performed in a black opaque 96-well microtiter plate with final volume of 100 μL using a buffer consisting of 50 mM HEPES (pH 7.2), 150 mM NaCl and 0.03% Triton X-100. Compounds were prepared as 10 mM stocks in DMSO, with subsequent serial dilutions performed in DMSO. Two microliters of test compounds were added to the microtiter plate, followed by 49-PL of LPL (native bovine milk protein affinity purified using heparin-affinity chromatography) in assay buffer. The plate contents were mixed using an orbital shaker and allowed to incubate for 5 minutes at room temperature. The enzymatic assay was initiated by the addition of a mixture of 49 μL of 50 μM resorufin butyrate (Santa Cruz #sc-208302; prepared from a 10 mM DMSO stock) and ANGPTL4 (N-terminal GST construct consisting of residues 26-164 expressed in E. coli) in assay buffer. The final concentrations of LPL and ANGPTL4 were 2.5 nM and 20 nM, respectively. The assay was allowed to proceed at 30° C. for 25 minutes with kinetic monitoring (Ex560/Em585) followed by an endpoint reading which was used for analysis.
Data was analyzed in Graphpad Prism (version 6.0, GraphPad Software, Inc., San Diego, CA) using a variable slope four parameter fit of the equation:
Y=Bottom+(Top-Bottom)/(1+10^((Log EC50−X)*HillSlope)),
where X is the concentration of test compound, Y corresponds to the amount of product expressed in relative fluorescence units, and Top and Bottom refer to the plateaus of the curve. Percent activation (protection) of test compound was calculated relative to zero effect wells (ZEW; LPL, ANGPTL4 and substrate) and maximum effect wells (MEW; LPL plus substrate): ((test well−ZEW)/(MEW−ZEW))*100.

The next experiment has as its system C57BL/6 mice. Briefly: Oral fat tolerance test (postprandial triglyceridaemia after olive oil bolus). It is filed as in vivo. The following applies: overnight-fasted C57BL/6 mice, compound IP 1 h before 10 mL/kg olive oil, bled at 1, 2 and 3.5 h. The procedure: To examine to effects of test compounds on postprandial triglycerdemia, 5-7 week old C57BL/6 mice were fasted overnight (18 hours) on non-nutritive bedding (Alpha-Dri). Following the overnight fast, the mice are bled via retro-orbital sinus (25 μL) using microcapillaries (t-1 hr sample). The LPL activator test compound was then administered intraperitoneally (IP) in a dose volume of 10 ml/kg. One hour later the mice were bled for the t=0 timepoint. The mice were then immediately dosed with a 10 mL/kg oral bolus of olive oil. The mice were subsequently bled at 1-, 2-, and 3.5-hours post-olive oil administration.
Whole blood samples were collected into tubes containing 0.125% EDTA solution in saline. Diluted plasma samples were analyzed for triglyceride levels using Infinity Triglyceride reagent (Thermo) on a microtiter plate. Briefly, 10 μL of diluted sample was added the plate. 200 μL of the reagent was added and the plate was incubated for 10 minutes at 37° C. The plate was then read at 550 nm on a Molecular Devices M5 Spectrophotometer (San Jose, CA). The concentration of triglycerides in the sample was determined using a standard curve made using a dilution of triglyceride standard (Sigma-Aldrich, St. Louis, MO) using the Softmax software from Molecular Devices. All graphing and subsequent area under-the-curve and statistical analysis (Student's t Test) is performed using GraphPad Prism (version 8.0, GraphPad Software, Inc., San Diego, CA).

As to `O=C(O)Cc1cc(F)ccc1NC(=O)c1ccc(N2CCCCC2)c(NC(=O)c2nn(CC(F)(F)F)c3ccccc23)c1` [Compound 158, 2-(5-fluoro-2-(4-(piperidin-1-yl)-3-(1-(2,2,2-trifluoroethyl)-1H-indazole-3-carboxamido)benzamido)phenyl)acetic acid], in experiment [1], the EC50 (commonly the midpoint of the concentration-response curve) came to 1.01 µM. In the experiment with C57BL/6 mice, the “hypertriglyceridemia response to oral olive oil gavage (plasma triglycerides)” value is given as “blunts hypertriglyceridemia response in a dose-dependent fashion”.

The values are drawn from patent publication US20250092014A1, “COMPOUNDS AND METHODS OF ACTIVATING LIPOPROTEIN LIPASE” (Metrea Biosciences, Inc., priority 2021, published 2025).
